Paper PMC11653243, “Enhancing Phototoxicity in BODIPY‐Perylene Charge Transfer Dyads by Combined Iodination and Mesylation” (Chemistry (Weinheim an Der Bergstrasse, Germany), 2024)
Like-named read-outs stand apart in the source and are kept apart here.

Experiments:
[1] = system: MCF‐7 cells; set-up: method as in PMID 36807947; conditions: 470 nm LED, 17±1.64 J/cm^2, published previously, read-out: Light IC50 (converted); cited from earlier work
[2] = system: MCF‐7 cells; test: Hypoxic phototoxicity (CoCl2 induced hypoxia); type: cell-based; conditions: Homo sapiens, MCF7, 300 μM CoCl2 4 h, 470 nm LED, maximum 1 μM tested, read-out: hypoxic IC50 (light)
Protocol: (§1) Cobalt chloride (CoCl2), a popular chemical hypoxia inducer, was added to the cells (after incubation with B2PI or MB2PI) at a total concentration of 300 μM CoCl2 in media and incubated for 4 h to mimic hypoxic conditions. In comparison to low‐oxygen induced hypoxia, this method stabilises hypoxia inducible factor 1 alpha subunit (HIF‐1α) for some hours after treatment, allowing a greater window for the phototoxicity studies.[52] We have previously confirmed the chemical induction of hypoxia with CoCl2 using an enzyme linked immunosorbent assay to detect HIF‐1α in cell lysates.[53] The cells were irradiated immediately upon removal of the media/CoCl2 solution as per the normoxic phototoxicity protocol.
(§2) Dark‐ and photo‐toxicity studies were performed by seeding CHO and MCF‐7 cells in clear 96‐well plates (Nunc) and treating with varying concentrations of B2P, MB2P, B2PI and MB2PI. Phototoxicity experiments were carried out using a 470 nm LED. For hypoxic phototoxicity studies, hypoxia was mimicked by adding CoCl2 to the cells prior to irradiation. Cell viability was determined using the alamar blue assay and absorbance measured with a BMG LABTECH CLARIOstar plate reader.
(§3) Hypoxic Phototoxicity Studies
(§4) Hypoxic phototoxicity studies were performed as per routing phototoxicity protocol. Hypoxia […]
(§5) A 1 M stock of CoCl2 in sterile 1X PBS […]

[3] = system: CHO cells; test: Hypoxic phototoxicity (CoCl2 induced hypoxia); type: cell-based, Chinese Hamster; conditions: Cricetulus griseus, 300 μM CoCl2 4 h, 470 nm LED, maximum 1 μM tested, read-out: hypoxic IC50 (light)
Protocol: as §1, §2, §3, §4, §5

Structure (SMILES) | IC50 [1] | IC50 [2] | IC50 [3]
CC1=C(I)C(C)=[N+]2C1=C(c1ccccc1)c1c(C)c(-c3ccc4c5cccc6cccc(c7cccc3c74)c65)c(C)n1[B-]2(F)F [B2PI] | 235 nM |  | 
CC1=C(c2ccc3c4cccc5cccc(c6cccc2c63)c54)C(C)=[N+]2C1=C(c1c(C)cc(C)cc1C)c1c(C)c(I)c(C)n1[B-]2(F)F [MB2PI] |  | > 1000 nM | > 1000 nM
